Consider 1 compound from ChEMBL document CHEMBL1221220, “Transport and signaling via the amino acid binding site of the yeast Gap1 amino acid transceptor” (Nat Chem Biol, 2009).

Changes are numbered by the printed parent chain. Active and inactive are the calls of the source. The rule behind the calls is not given here.

Experiment [1] has as its system T1, General amino-acid permease GAP1 (Saccharomyces cerevisiae), P19145 [G390C].
T1 sequence (whole entry): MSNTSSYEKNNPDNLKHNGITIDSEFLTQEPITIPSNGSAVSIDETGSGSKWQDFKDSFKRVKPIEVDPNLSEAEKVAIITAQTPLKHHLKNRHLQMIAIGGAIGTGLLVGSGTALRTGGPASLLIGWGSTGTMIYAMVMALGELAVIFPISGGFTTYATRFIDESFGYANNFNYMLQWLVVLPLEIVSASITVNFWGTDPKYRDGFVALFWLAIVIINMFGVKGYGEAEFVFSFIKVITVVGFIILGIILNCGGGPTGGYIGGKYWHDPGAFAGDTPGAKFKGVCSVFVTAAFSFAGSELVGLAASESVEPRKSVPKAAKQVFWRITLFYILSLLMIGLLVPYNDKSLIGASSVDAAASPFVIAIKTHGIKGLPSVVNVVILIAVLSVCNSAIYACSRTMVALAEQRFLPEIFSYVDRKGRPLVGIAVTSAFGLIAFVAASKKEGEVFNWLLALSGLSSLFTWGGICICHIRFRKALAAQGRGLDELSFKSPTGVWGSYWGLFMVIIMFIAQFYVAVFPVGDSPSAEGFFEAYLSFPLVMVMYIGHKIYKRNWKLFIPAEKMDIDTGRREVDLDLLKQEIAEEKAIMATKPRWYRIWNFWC
As to the kind of experiment: Activation of yeast Gap1 G390C mutant-mediated amino acid uptake at 10 mM.

For experiment [2], the system named is T2, General amino-acid permease GAP1 (Saccharomyces cerevisiae), P19145 [A396C].
T2 sequence (whole entry): T1 sequence (whole entry) with C390G, A396C
As to the kind of experiment: Activation of yeast Gap1 A396C mutant-mediated amino acid uptake at 10 mM.

Experiment [3] shares this test system. In words: Induction of yeast Gap1 A396C mutant-mediated trehalose activation at 10 mM.
Experiment [4] concerns T3, General amino-acid permease GAP1 (Saccharomyces cerevisiae), P19145 [T400C].
T3 sequence (whole entry): T1 sequence (whole entry) with C390G, T400C
In words: Induction of yeast Gap1 T400C mutant-mediated trehalose activation at 10 mM.

The subject of experiment [5] is T2, General amino-acid permease GAP1 (Saccharomyces cerevisiae), P19145 [A396C]. In words: Induction of yeast Gap1 A396C mutant-mediated […] activation at 2 mM in presence of 10 mM MTSEA treated before compound addition.
The subject of experiment [6] is Saccharomyces cerevisiae. In words: Induction of yeast Gap1 L404 mutant-mediated trehalose activation at 2 mM in presence of 10 mM MTSEA treated before compound addition.
The test system of experiment [7] is T2, General amino-acid permease GAP1 (Saccharomyces cerevisiae), P19145 [A396C]. As to the kind of experiment: Induction of yeast Gap1 A396C mutant-mediated amino acid uptake at 2 mM in presence of 10 mM MTSEA treated before compound addition.
Experiment [8] relates to T4, General amino-acid permease GAP1 (Saccharomyces cerevisiae), P19145 [A405C].
T4 sequence (whole entry): T1 sequence (whole entry) with C390G, A405C
In words: Induction of yeast GAP1 A405C mutant-mediated amino acid uptake at 2 mM in presence of 10 mM MTSEA treated before compound addition.

As to `NC(=O)NCCC[C@H](N)C(=O)O`, the result in experiment [1], in experiment [2], in experiment [3] and in experiment [4] was inactive. The inhibition entry in experiment [5] and in experiment [6] was “Active” each time. Besides, the result in experiment [7] and in experiment [8] was Active.
